# Data from patent publication US4314061A, “Certain 3,6-bis-(heteroaminoalkoxy) acridines” (priority 1980, dated 1982).
# Experiments:
# [1] = system: B-16 melanoma; experiment: Potentiation of cyclophosphamide (Cytoxan) activity against B16 melanoma in mice; type: in vivo, BDF1 mice
# Experimental: BDF1 male mice were inoculated subcutaneously with 0.25 ml. of a 10% B-16 melanoma homogenate. Cyclophosphamide was administered intraperitoneally at 80 mg./kg. the second day following the day of tumor implantation. Test compounds were given intraperitoneally on days +6, +8 and +10 relative to tumor implantation. […]
# BDF1 male mice inoculated subcutaneously with 0.25 ml. of a 10% tumo
# homogenate on day 0. Drugs were administered intraperitoneally;
# cyclophosphoamide on day 2, 3,6bis(2-diethylaminoethoxy)acridine
# trihydrochloride on days 6, 8 and 10.
# ^1 Number of survivors over number of mice treated.
# [2] = system: B16 melanoma; experiment: Surgical-adjuvant antitumor activity against B16 melanoma implanted subcutaneously in footpads; type: in vivo, BDF1 mice; conditions: for Average % of tumor weight inhibition / Average tumor weight: Day +21; for No. Survivors/No. Treated: at +90 days
# Experimental: BDF1 mice were inoculated subcutaneously in the right hind footpad with 5×10^5 viable B16 melanoma cells, on day zero. The drug was prepared in normal saline and administered by the oral route once daily, on days 1, 7, and 13 following tumor implantation, at doses range from 50 mg/kg to 400 mg/kg. A control group of mice received a saline placebo instead of drug, and another group of tumor bearing mice received the positive control drug cyclophosphamide, at 100 mg/kg, by intraperitoneal injection. On the 21st day after tumor implantation, the mice were anesthesized with Nembutal, and the tumor bearing feet were surgically amputated above the ankle joint. The surgical incision was swabbed with alcohol and sealed with stainless steel wound clips. The tumor bearing feet were individually weighed and the average weight of a normal foot (determined by weighing amputated feet from non-tumor bearing mice of the same sex, age, and body weight) was subtracted to obtain the weight of tumor tissue in the amputated feet. Mice were then observed for deaths until the 90th day after tumor implantation. […]
# ^1 BDF1 male mice inocluated with 5 × 10^5 B16 melanom
# cells subcutaneously in footpad on day zero;
# 3,6bis(2-diethylaminoethoxy)acridine trihydrochloride administered orally
# and Cyclophosphamide intraperitoneally, on days 1, 7, and 13 following
# ^2 Average tumor weight determined after surgical amputation of tumor
# bearing foot on day 21 following tumor implantation.
# [3] = 100 mg/kg i.p. + cyclophosphamide 80 mg/kg
# [4] = 100 mg/kg i.p. + cyclophosphamide 80 mg/kg, day 21
compound,measurement,setting,value
CCN(CC)CCOc1ccc2cc3ccc(OCCN(CC)CC)cc3nc2c1.Cl.Cl.Cl,Average tumor weight,"[1]; 50 mg/kg i.p. + cyclophosphamide 80 mg/kg, day 26, p <0.05 vs cyclophosphamide alone",4258 mg
same,ILS (Percent increase in life span over control),[1]; 50 mg/kg i.p. alone,18%
same,MST (Median Survival Time),[1]; 50 mg/kg i.p. alone,26.5 days
same,Number of survivors over number of mice treated,"[1]; 50 mg/kg i.p. alone, day 21",7/8
same,Average tumor weight,"[1]; 50 mg/kg i.p. alone, day 21, p <0.05 vs untreated",2168 mg
same,Number of survivors over number of mice treated,"[1]; 50 mg/kg i.p. alone, day 26",4/8
same,Average tumor weight,"[1]; 50 mg/kg i.p. alone, day 26, p <0.05 vs untreated",3111 mg
same,ILS (Percent increase in life span over control),[1]; [3],22%
same,MST (Median Survival Time),[1]; [3],27.5 days
same,Average tumor weight,[1]; [4],1532 mg
same,Number of survivors over number of mice treated,[1]; [4],8/8
same,Number of survivors over number of mice treated,"[1]; 100 mg/kg i.p. + cyclophosphamide 80 mg/kg, day 26",5/8
same,Average tumor weight,"[1]; 100 mg/kg i.p. + cyclophosphamide 80 mg/kg, day 26, p <0.05 vs cyclophosphamide alone",2836 mg
same,ILS (Percent increase in life span over control),[1]; 100 mg/kg i.p. alone,22%
same,MST (Median Survival Time),[1]; 100 mg/kg i.p. alone,27.5 days
same,Number of survivors over number of mice treated,"[1]; 100 mg/kg i.p. alone, day 21",7/8
same,Average tumor weight,"[1]; 100 mg/kg i.p. alone, day 21, p <0.05 vs untreated",1892 mg
same,Number of survivors over number of mice treated,"[1]; 100 mg/kg i.p. alone, day 26",7/8
same,Average tumor weight,"[1]; 100 mg/kg i.p. alone, day 26, p <0.05 vs untreated",4127 mg
same,inhibition in local tumor growth,"[1]; in combination with Cytoxan, i.p., day +26",50%
same,"50% inhibition in local tumor growth, in words","[1]; monotherapy, i.p., day +26",failed to do so
same,% Increased life-span,[2]; 50 mg/kg oral,2%
same,Median survival time,[2]; 50 mg/kg oral,54.0 days
same,Average % of tumor weight inhibition,[2]; 50 mg/kg oral,33%
same,Average tumor weight,[2]; 50 mg/kg oral,403 mg
same,No. Survivors/No. Treated,[2]; 50 mg/kg oral,0/12
same,% Increased life-span,[2]; 100 mg/kg oral,21%
same,Median survival time,[2]; 100 mg/kg oral,64.0 days
same,Average tumor weight,[2]; 100 mg/kg oral,225 mg
same,Average % of tumor weight inhibition,"[2]; 100 mg/kg oral, * significant (≥58%)",63%
same,No. Survivors/No. Treated,[2]; 100 mg/kg oral,2/12
same,Median survival time,[2]; 200 mg/kg oral,> 90.0 days
same,Average tumor weight,[2]; 200 mg/kg oral,122 mg
same,Average % of tumor weight inhibition,"[2]; 200 mg/kg oral, * significant (≥58%)",80%
same,No. Survivors/No. Treated,"[2]; 200 mg/kg oral, ** significant",7/12
same,% Increased life-span,"[2]; 200 mg/kg oral, + significant (≥25%)",> 70%
same,Median survival time,[2]; 300 mg/kg oral,> 90.0 days
same,Average tumor weight,[2]; 300 mg/kg oral,63 mg
same,Average % of tumor weight inhibition,"[2]; 300 mg/kg oral, * significant (≥58%)",90%
same,No. Survivors/No. Treated,"[2]; 300 mg/kg oral, ** significant",8/12
same,% Increased life-span,"[2]; 300 mg/kg oral, + significant (≥25%)",> 70%
same,Median survival time,[2]; 400 mg/kg oral,69.0 days
same,Average tumor weight,[2]; 400 mg/kg oral,51 mg
same,Average % of tumor weight inhibition,"[2]; 400 mg/kg oral, * significant (≥58%)",92%
same,No. Survivors/No. Treated,"[2]; 400 mg/kg oral, ** significant",5/12
same,% Increased life-span,"[2]; 400 mg/kg oral, + significant (≥25%)",30%
